Reference: patent US10808007B2, “Desacetoxytubulysin H and analogs thereof” (WILLIAM MARSH RICE UNIVERSITY, priority 2015, dated 2020)
Read-outs that look alike come from different tables or passages of the source.

How the values were obtained:
Assay type in all cases: cell-based
[1] = tested on: MES SA DX (multidrug resistant uterine sarcoma cells); assay: Cytotoxic assay (CellTiter-Glo, 72 h), MES SA DX; settings: Homo sapiens
[2] = tested on: HEK 293T (human embryonic kidney cells); assay: Cytotoxic assay (CellTiter-Glo, 72 h), HEK 293T; settings: Homo sapiens, HEK-293T, read-out: IC50 HEK 293T
[3] = tested on: MES SA (uterine sarcoma cells); assay: Cytotoxic assay (CellTiter-Glo, 72 h), MES SA; settings: Homo sapiens, MES-SA, read-out: IC50 MES SA

Compound | IC50 [1] [nM] | IC50 ([2]; 72 h) [nM] | IC50 ([3]; 72 h) [nM] | IC50 [2] [nM] | IC50 [3] [nM]
COC(=O)[C@@H](C)C[C@H](Cc1ccccc1)NC(=O)c1csc([C@@H](C[C@H](C(C)C)N(C)C(=O)[C@@H](NC(=O)[C@H]2CCCCN2C)c2ccc(F)cc2)OC(C)=O)n1 [Tb29, (2S,4R)-Methyl 4-(2-((1R,3R)-1-acetoxy-3-((S)-2-(4-fluorophenyl)-N-methyl-2-((R)-1-methylpiperidine-2-carboxamido)acetamido)-4-methylpentyl)thiazole-4-carboxamido)-2-methyl-5-phenylpentan oate] | 500 | 2.24 | 2.61 | – | –
CC(=O)O[C@H](C[C@H](C(C)C)N(C)C(=O)[C@@H](NC(=O)[C@H]1CCCCN1C)C1CC1)c1nc(C(=O)N[C@@H](Cc2ccccc2)C[C@H](C)C(=O)O)cs1 [Tb30, (2S,4R)-4-(2-((1R,3R)-1-Acetoxy-3-((S)-2-cyclopropyl-N-methyl-2-((R)-1-methylpiperidine-2-carboxamido)acetamido)-4-methylpentyl)thiazole-4-carboxamido)-2-methyl-5-phenylpentanoic Acid] | > 100 | 0.35 | 4.09 | – | –
COC(=O)[C@@H](C)C[C@H](Cc1ccccc1)NC(=O)c1csc([C@@H](C[C@H](C(C)C)N(C)C(=O)[C@@H](NC(=O)[C@H]2CCCCN2C)C(C)C)OC(C)=O)n1 [Tb32, (2S,4R)-Methyl 4-(2-((1R,3R)-1-acetoxy-3-((S)—N,3-dimethyl-2-((R)-1-methylpiperidine-2-carboxamido)butanamido)-4-methylpentyl)thiazole-4-carboxamido)-2-methyl-5-phenylpentanoate] | 1.29 | 0.002 | 0.012 | 0.002 | 0.012
COC(=O)[C@@H](C)C[C@H](Cc1ccccc1)NC(=O)c1csc([C@@H](C[C@H](C(C)C)N(C)C(=O)[C@@H](NC(=O)[C@H]2CCCCN2C)C2CCCCC2)OC(C)=O)n1 [Tb33, (2S,4R)-Methyl 4-(2-((1R,3R)-1-acetoxy-3-((S)-2-cyclohexyl-N-methyl-2-((R)-1-methylpiperidine-2-carboxamido)acetamido)-4-methylpentyl)thiazole-4-carboxamido)-2-methyl-5-phenylpentanoate] | 101 | 0.048 | 0.066 | 0.048 | 0.066
CC[C@H](C)[C@H](NC(=O)c1ncccn1)C(=O)N(C)[C@H](C[C@@H](OC(C)=O)c1nc(C(=O)N[C@@H](Cc2ccccc2)C[C@H](C)C(=O)OC)cs1)C(C)C [Tb34, (2S,4R)-methyl 4-(2-((1R,3R)-1-acetoxy-3-((2S,3S)—N,3-dimethyl-2-(pyrimidine-2-carboxamido)pentanamido)-4-methylpentyl)thiazole-4-carboxamido)-2-methyl-5-phenylpentanoate] | > 1000 | > 500 | > 1000 | – | –
CC[C@H](C)[C@H](NC(=O)c1cnccn1)C(=O)N(C)[C@H](C[C@@H](OC(C)=O)c1nc(C(=O)N[C@@H](Cc2ccccc2)C[C@H](C)C(=O)OC)cs1)C(C)C [Tb35, (2S,4R)-methyl 4-(2-((1R,3R)-1-acetoxy-3-((2S,3S)—N,3-dimethyl-2-(pyrazine-2-carboxamido)pentanamido)-4-methylpentyl)thiazole-4-carboxamido)-2-methyl-5-phenylpentanoate] | > 1000 | > 500 | > 1000 | – | –
COC(=O)[C@@H](C)C[C@H](Cc1ccccc1)NC(=O)c1cccc([C@@H](C[C@H](C(C)C)N(C)C(=O)[C@@H](NC(=O)[C@H]2CCCCN2C)C2CC2)OC(C)=O)n1 [Tb36, Methyl (2S,4R)-4-(6-((1R,3R)-1-acetoxy-3-((S)-2-cyclopropyl-N-methyl-2-((R)-1-methylpiperidine-2-carboxamido)acetamido)-4-methylpentyl)picolinamido)-2-methyl-5-phenylpentanoate] | > 1000 | 0.631 | 0.308 | 0.631 | 0.308
CC(=O)O[C@H](C[C@H](C(C)C)N(C)C(=O)[C@@H](NC(=O)[C@H]1CCCCN1C)C1CC1)c1cccc(C(=O)N[C@@H](Cc2ccccc2)C[C@H](C)C(=O)O)n1 [Tb37, (2S,4R)-4-(6-((1R,3R)-1-Acetoxy-3-((S)-2-cyclopropyl-N-methyl-2-((R)-1-methylpiperidine-2-carbox-amido)acetamido)-4-methylpentyl)picolinamido)-2-methyl-5-phenylpentanoic Acid] | > 1000 | 3.52 | 14.4 | – | –
CC[C@H](C)[C@H](NC(=O)[C@H]1CCCCN1C)C(=O)N(C)[C@H](C[C@@H](OC(C)=O)c1cccc(C(=O)N[C@@H](Cc2ccccc2)C[C@H](C)C(=O)OC)n1)C(C)C [Tb38, Methyl (2S,4R)-4-(6-((1R,3R)-1-acetoxy-3-((2S,3S)—N,3-dimethyl-2-((R)-1-methylpiperidine-2-carboxamido)pentanamido)-4-methylpentyl)picolinamido)-2-methyl-5-phenylpentanoate] | < 500 | 0.574 | 0.357 | 0.574 | 0.357
CC[C@H](C)[C@H](NC(=O)[C@H]1CCCCN1C)C(=O)N(C)[C@H](C[C@@H](OC(C)=O)c1cccc(C(=O)N[C@@H](Cc2ccccc2)C[C@H](C)C(=O)O)n1)C(C)C [Tb39, (2S,4R)-4-(6-((1R,3R)-1-acetoxy-3-((2S,3S)—N,3-dimethyl-2-((R)-1-methylpiperidine-2 carboxamido)pentanamido)-4-methylpentyl)picolinamido)-2-methyl-5-phenylpentanoic Acid] | < 500 | 0.194 | 0.891 | 0.194 | 0.891
COC(=O)[C@@H](C)C[C@H](Cc1ccc(F)cc1)NC(=O)c1csc([C@@H](C[C@H](C(C)C)N(C)C(=O)[C@@H](NC(=O)[C@H]2CCCCN2C)C(C)C)OC(C)=O)n1 [Tb40, Methyl(2S,4R)-4-(2-((1R,3R)-1-acetoxy-3-((S)—N,3-dimethyl-2-((R)-1-methylpiperidine-2-carboxamido)butanamido)-4-methylpentyl)thiazole-4-carboxamido)-5-(4-fluorophenyl)-2-methylpentanoate] | > 1000 | > 1000 | 15.6 | – | –
COC(=O)[C@@H](C)C[C@H](Cc1cn(C)c2ccccc12)NC(=O)c1csc([C@@H](C[C@H](C(C)C)N(C)C(=O)[C@@H](NC(=O)[C@H]2CCCCN2C)C(C)C)OC(C)=O)n1 [Tb41, Methyl(2S,4R)-4-(2-((1R,3R)-1-acetoxy-3-((S)—N,3-dimethyl-2-((R)-1-methylpiperidine-2-carboxamido)butanamido)-4-methylpentyl)thiazole-4-carboxamido)-2-methyl-5-(1-methyl-1H-indol-3-yl)pen-tanoate] | > 1000 | 21.1 | > 1000 | – | –
